Like-named read-outs stand apart in the source and are kept apart here.
What was measured:
VIM-1 = VIM-1 (Pseudomonas aeruginosa (strain ATCC 15692 / DSM 22644 / CIP 104116 / JCM 14847 / LMG 12228 / 1C / PRS 101 / PAO1), UniProt A0A0F7KYQ8); test: biochemical; settings: CCF2-FA substrate, 30 pM enzyme, 2 hours at 25° C.
How it was run: (§1)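 Two-hour, 25° C incubation of enzyme with inhibitor and CCF2-FA (7-hydroxycoumarin–cephalosporin–fluorescein). Fluorescence read-out; IC50 via 4-parameter fit.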

[1] = tested on: Klebsiella pneumoniae expressing VIM-1 (IHMA599644); format: cell-based; settings: VIM-1 strain IHMA599644, with imipenem 1 μg/ml, 95% inhibition of growth
How it was run: (§2)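 Growth by absorbance after 22–24 h at 35°C defined the read-out, with imipenem fixed at 1 μg/ml alongside compound. Inocula came from overnight blood-agar colonies at 35°C, resuspended in saline and diluted 1:100 in 1.1×CAMHB.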

[2] = tested on: Escherichia coli expressing NDM-1 (CLB30005, CLB30016); format: cell-based; settings: NDM-1 strain, with imipenem 1 μg/ml, 95% inhibition of growth
How it was run: as §2

[3] = tested on: Serratia marcescens expressing IMP-1 (CL5741); format: cell-based; settings: IMP-1 strain CL5741, with imipenem 1 μg/ml, 95% inhibition of growth
How it was run: as §2

[4] = tested on: Pseudomonas aeruginosa MB9798 vs MB9799; settings: ratio MITC95 PA_9798/MITC95 PA_9799
How it was run: (§3)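 PAO1 pair, broth microdilution; fixed β-lactam (imipenem/ceftazidime) at ~CLSI breakpoint + fixed class A/C BLI for AmpC; serial MBLi titration; endpoint = MBLi conc. restoring susceptibility; MB9798:MB9799 ratio = efflux liability.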

NDM-1 = NDM-1 (Klebsiella pneumoniae, UniProt C7C422); test: biochemical; format: biochemical; settings: fluorescence assay, CCF2-FA substrate, 1 pM enzyme, 2 hours at 25° C.; read-out: NDM-1 IC50
How it was run: as §1

IMP-1 = IMP-1 (Serratia marcescens, UniProt P52699); test: biochemical; format: biochemical; settings: fluorescence assay, CCF2-FA substrate, 2 pM enzyme, 2 hours at 25° C.; read-out: IMP-1 IC50
How it was run: as §1

[5] = tested on: Pseudomonas aeruginosa efflux+ (MB9798), IMP-1; format: cell-based; settings: concentration restoring susceptibility to imipenem at 2 μg/mL in the presence of a class A, C, D serine β-lactamase inhibitor closely related to relebactam
How it was run: as §3

[6] = tested on: Pseudomonas aeruginosa efflux− (MB9799), IMP-1; format: cell-based; settings: concentration restoring susceptibility to imipenem at 2 μg/mL in the presence of a class A, C, D serine β-lactamase inhibitor closely related to relebactam
How it was run: as §3

[7] = fluorescence assay, read-out: VIM-1 IC50

Sequence of IMP-1 (P52699 whole entry, looked up, species assumed): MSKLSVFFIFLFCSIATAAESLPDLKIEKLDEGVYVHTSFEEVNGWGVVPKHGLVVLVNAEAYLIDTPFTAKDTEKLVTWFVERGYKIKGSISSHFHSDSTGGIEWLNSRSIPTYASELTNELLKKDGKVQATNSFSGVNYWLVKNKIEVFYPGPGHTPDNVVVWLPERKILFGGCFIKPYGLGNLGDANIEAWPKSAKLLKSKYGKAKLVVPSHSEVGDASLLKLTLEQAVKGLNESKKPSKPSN
Sequence of NDM-1 (C7C422 whole entry, looked up, species assumed): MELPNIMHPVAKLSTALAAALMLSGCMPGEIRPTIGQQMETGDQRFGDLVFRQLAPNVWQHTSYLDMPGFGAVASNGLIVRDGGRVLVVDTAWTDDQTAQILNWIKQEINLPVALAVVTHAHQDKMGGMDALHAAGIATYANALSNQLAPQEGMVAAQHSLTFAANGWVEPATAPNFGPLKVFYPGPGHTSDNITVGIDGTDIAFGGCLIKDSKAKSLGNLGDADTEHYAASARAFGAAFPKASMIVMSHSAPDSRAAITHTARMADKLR

SMILES | IC50 (VIM-1; VIM-1 IC50, fluorescence assay) [nM] | Klebsiella pneumoniae MITC95 [1] [µM] | Escherichia coli MITC95 [2] [µM] | Serratia marcescens MITC95 [3] [µM] | Efflux ratio [4] | IC50 (NDM-1) [nM] | IC50 (IMP-1) [nM] | P. aeruginosa expressing IMP-1, efflux + (MB9798) MITC95 [5] [µM] | P. aeruginosa expressing IMP-1, efflux − (MB9799) MITC95 [6] [µM] | IC50 (VIM-1; [7]) [nM]
NCCNS(=O)(=O)c1ccc(-c2cccc3[nH]c([C@@H](N)CO)nc23)c(-c2nn[nH]n2)c1S(N)(=O)=O [Example 331, (R)-4-(2-(1-amino-2-hydroxyethyl)-1H-benzo[d]imidazol-4-yl)-N1-(2-aminoethyl)-3-(2H-tetrazol-5-yl)benzene-1,2-disulfonamide] | 0.18 | 3.125 | 1.563 | 3.125 | 1.00 | 0.228 | 2.28 | 1.563 | 1.563 | 
NCCNS(=O)(=O)c1ccc(-c2cccc(C(=O)NC[C@@H](N)CO)c2N)c(-c2nn[nH]n2)c1S(N)(=O)=O [Example 332] |  | 3.125 | 1.563 | 1.563 | 1.00 | 0.661 | 3 | 1.563 | 1.563 | 0.23
NCCNS(=O)(=O)c1ccc(-c2cccc(C(=O)NC[C@H](N)CO)c2N)c(-c2nn[nH]n2)c1S(N)(=O)=O [Example 333, (S)-2-amino-N-(2-amino-3-hydroxypropyl)-4′-(N-(2-aminoethyl)sulfamoyl)-3′-sulfamoyl-2′-(2H-tetrazol-5-yl)-[1,1′-biphenyl]-3-carboxamide] |  | 3.125 | 1.563 | 1.563 | 1.00 | 1.01 | 3.21 | 1.563 | 1.563 | 0.472
NCCNC(=O)c1cccc(-c2ccc(S(=O)(=O)NCCN)c(S(N)(=O)=O)c2-c2nn[nH]n2)c1 [Example 334, N-(2-aminoethyl)-4′-(N-(2-aminoethyl)sulfamoyl)-3′-sulfamoyl-2′-(2H -tetrazol-5-yl)-[1,1′-biphenyl]-3-carboxamide] |  | 0.7813 | 0.3906 | 0.7813 | 2.00 | 1.32 | 4.6 | 1.563 | 0.7813 | 0.247
NCCNS(=O)(=O)c1ccc(-c2cccc3[nH]c([C@H](N)CN)nc23)c(-c2nn[nH]n2)c1S(N)(=O)=O [Example 335, (R)—N1-(2-aminoethyl)-4-(2-(1,2-diaminoethyl)-1H-benzo[d]imidazole-4-yl)-3-(2H-tetrazol-5-yl)benzene-1,2-disulfonamide] |  | 3.125 | 1.563 | 3.125 | 2.00 | 0.459 | 4.78 | 3.125 | 1.563 | 0.287
NCCNS(=O)(=O)c1ccc(-c2cccc3[nH]c([C@@H](N)CN)nc23)c(-c2nn[nH]n2)c1S(N)(=O)=O [Example 336, (S)—N1-(2-aminoethyl)-4-(2-(1,2-diaminoethyl)-1H-benzo[d]imidazol-4-yl)-3-(2H-tetrazol-5-yl)benzene-1,2-disulfonamide] |  | 3.125 | 1.563 | 3.125 | 2.00 | 0.325 | 2.9 | 3.125 | 1.563 | 0.233
NCCNS(=O)(=O)c1ccc(-c2cccc3[nH]c(CCN)nc23)c(-c2nn[nH]n2)c1S(N)(=O)=O [Example 337, N1-(2-aminoethyl)-4-(2-(2-aminoethyl)-1H-benzo[d]imidazol-4-yl)-3-(2H-tetrazol-5-yl)benzene-1,2-disulfonamide] |  | 0.7813 | 0.7813 | 0.7813 | 2.00 | 0.208 | 2.23 | 0.7813 | 0.3906 | 0.2
NCCNS(=O)(=O)c1ccc(C2=CC(N)CCC2)c(-c2nn[nH]n2)c1S(N)(=O)=O (stereo not drawn) [Example 338, 5′-Amino-N4-(2-aminoethyl)-2-(2H-tetrazol-5-yl)-2′,3′,4′,5′-tetrahydro-[1,1′-biphenyl]-3,4-disulfonamide] |  | 1.563 | 1.563 | 1.563 | 4.00 | 37.6 | 91 | 6.25 | 1.563 | 6.42
N[C@H]1C=C(c2ccc(S(=O)(=O)N[C@@H]3CCNC3)c(S(N)(=O)=O)c2-c2nn[nH]n2)CCC1 [Example 339, (R)-5′-amino-N4-((R)-pyrrolidin-3-yl)-2-(2H-tetrazol-5-yl)-2′,3′,4′,5′-tetrahydro-[1,1′-biphenyl]-3,4-disulfonamide] | 2.1 | 0.7813 | 0.7813 | 1.563 | 4.00 | 11.9 | 34.1 | 6.25 | 1.563 | 
N[C@@H]1C=C(c2ccc(S(=O)(=O)N[C@@H]3CCNC3)c(S(N)(=O)=O)c2-c2nn[nH]n2)CCC1 [Example 340, (S)-5′-amino-N4-((R)-pyrrolidin-3-yl)-2-(2H-tetrazol-5-yl)-2′,3′,4′,5′-tetrahydro-[1,1′-biphenyl]-3,4-disulfonamide] | 2.89 | 0.7813 | 0.3906 | 1.563 | 4.00 | 6.29 | 46.7 | 6.25 | 1.563 | 
NCCCNC(=O)c1cccc(-c2ccc(S(=O)(=O)NCCN)c(S(N)(=O)=O)c2-c2nn[nH]n2)c1 [Example 341, 4′-(N-(2-aminoethyl)sulfamoyl)-N-(3-aminopropyl)-3′-sulfamoyl-2′-(2H-tetrazol-5-yl)-[1,1′-biphenyl]-3-carboxamide] |  | 3.125 | 0.7813 | 1.563 | 2.00 | 1.71 | 4.13 | 1.563 | 0.7813 | 0.474

Reference: patent US10221163B2 (priority 2015, dated 2019)
